Results on seven compounds are retold here after patent US20120095036A1, “NOVEL SUBSTITUTED INDAZOLE AND AZA-INDAZOLE DERIVATIVES AS GAMMA SECRETASE MODULATORS” (priority 2009, published 2012).

SMILES strings stand for the structures.

Data set [1] has as its system Aβtotal. Description: Method 1: Aβtotal sandwich ELISA on media of SKNBE2 cells carrying APP 695 wild type. The data set is classed as cell-based. The note with it: Homo sapiens, SKNBE2 cells APP 695 wild type, 18 hours. The procedure, abridged: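 SKNBE2 cells expressing wild-type APP695 treated with compound for 18 h in Ultraculture; secreted Aβtotal measured by 6E10-capture/biotinylated 4G8 sandwich ELISA with fluorogenic peroxidase read-out. IC50 from 4-parameter fit, top/bottom fixed at 100/0, Hill slope 1; toxicity checked by WST-1.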

Data set [2] has as its system Aβ42. Description: Method 2: Aβ42 Alphalisa on supernatant of SKNBE2 cells carrying APP 695 wild type. The data set is classed as cell-based. The note with it: Homo sapiens, SKNBE2 cells APP 695 wild type, overnight. The procedure, abridged:
(§1)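 SKNBE2 cells expressing wild-type APP695 (10^4/well) were incubated overnight at 37 °C with compound at several concentrations. Secreted Aβ42 (C-terminal/N-terminal antibody pair) and Aβtotal (N-terminal/4G8 pair) were measured by AlphaLISA in the supernatant. IC50 values came from 4-parameter fits of percent of untreated control.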
A general note: Bead proximity is the source of the signal in Alpha formats.

In data set [3] the test system is Aβtotal. Description: Method 2: Aβtotal Alphalisa on supernatant of SKNBE2 cells carrying APP 695 wild type. The format is cell-based. As to conditions: Homo sapiens, SKNBE2 cells APP 695 wild type, overnight. Summed up: as §1

The IC50 is the concentration needed to halve the response being measured. A higher IC50 goes with lower potency. With `COc1cccc(-n2cc3cccc(Nc4ccc(-n5cnc(C)c5)c(OC)c4)c3n2)c1` [Compound 1, N-[3-methoxy-4-(4-methyl-1H-imidazol-1-yl)phenyl]-2-(3-methoxyphenyl)-2H-indazol-7-amine], the IC50 is > 3000 nM in data set [1], 81 nM in data set [2] and 8320 nM in data set [3].

For orientation: melting point means the temperature of the solid-liquid transition. On to `COc1cccc(-n2nc3c(Nc4ccc(-n5cnc(C)c5)c(OC)c4)cccc3c2C)c1` [Compound 2, N-[3-methoxy-4-(4-methyl-1H-imidazol-1-yl)phenyl]-2-(3-methoxyphenyl)-3-methyl-2H-indazol-7-amine], for which the melting point turned out to be 184.4 °C. In addition, the IC50 in data set [1] is > 1000 nM. Moreover, in data set [2], the IC50 worked out at 7 nM. Further, in data set [3], the IC50 stood at 6460 nM.

Turning to `COc1cc(Nc2cccc3cn(CC(F)(F)F)nc23)ccc1-c1cnc(C)o1` [Compound 6, N-[3-methoxy-4-(2-methyl-5-oxazolyl)phenyl]-2-(2,2,2-trifluoroethyl)-2H-indazol-7-amine], the IC50 in data set [1] is > 3000 nM; in data set [2], 162 nM; in data set [3] it was 3980 nM.

On to `COc1cc(Nc2cccc3cn(Cc4ccc(F)cc4)nc23)ccc1-n1cnc(C)c1` [Compound 15, 2-[(4-fluorophenyl)methyl]-N-[3-methoxy-4-(4-methyl-1H-imidazol-1-yl)phenyl]-2H-indazol-7-amine], for which the IC50 is > 3000 nM in data set [1], 14 nM in data set [2] and 6610 nM in data set [3].

`COc1cccc(-n2nc3c(Nc4ccc(-c5cnc(C)o5)cc4)cccc3c2C)c1` [Compound 29, 2-(3-methoxyphenyl)-3-methyl-N-[4-(2-methyl-5-oxazolyl)phenyl]-2H-indazol-7-amine] registered a melting point of 152.2 °C. The IC50 in data set [1] was > 1000 nM. For the same compound, the IC50 in data set [2] amounted to 15 nM. For the same compound, the IC50 in data set [3] is > 10000 nM.

As to `COc1cc(Nc2cccc3cn(CC4CC4)nc23)ccc1-c1cnc(C)o1.Cl` [Compound 38, 2-(cyclopropylmethyl)-N-[3-methoxy-4-(2-methyl-5-oxazolyl)phenyl]-2H-indazol-7-amine HCl], the IC50 in data set [1] was > 3000 nM; in data set [2], 234 nM; in data set [3] it was 4680 nM.

As for `COc1cccc(-n2nc3c(Nc4ccc(-c5cnc(C)o5)c(OC)c4)nccc3c2C)c1` [Compound 42, N-[3-methoxy-4-(2-methyl-5-oxazolyl)phenyl]-2-(3-methoxyphenyl)-3-methyl-2H-pyrazolo[3,4-c]pyridin-7-amine], the melting point was 194.4 °C. The IC50 in data set [1] is > 3000 nM. Besides, inhibition in data set [2] was half-maximal at 120 nM (IC50). Moreover, the IC50 in data set [3] is 4360 nM.
